Data on eleven compounds can be found in ChEMBL document CHEMBL6109097, “Structure-based design of novel 2,4,5-trisubstituted pyrimidine derivatives as potent HIV-1 NNRTIs by exploiting the tolerant regions in NNTRIs binding pocket” (Eur J Med Chem, 2025).

SMILES strings stand for the structures.

System in one data set: not listed separately
In words: Selectivity index, ratio of CC50 for cytotoxicity against human MT4 cells assessed as reduction in cell viability to EC50 for antiviral activity against human MT4 cells assessed as protection against virus-induced cytopathic effect. It counts as toxicity, cell-based. The settings on record: read-out: Ratio CC50/EC50. For orientation: Protection from cytopathic effect is a common read-out in antiviral testing.
For `Cc1cc(/C=C/C#N)cc(C)c1Oc1nc(Nc2ccc(N3CCS(=O)(=O)CC3)c(F)c2)ncc1-c1ccc(N)nc1`, the selectivity ratio was determined as 239.
Take `Cc1cc(/C=C/C#N)cc(C)c1Oc1nc(Nc2ccc(N3CCN(S(C)(=O)=O)CC3)c(C#N)c2)ncc1-c1cnc(F)nc1`: the selectivity ratio is 784.
Turning to `Cc1cc(/C=C/C#N)cc(C)c1Oc1nc(Nc2ccc(N3CCN(S(C)(=O)=O)CC3)c(F)c2)ncc1-c1cnc(F)nc1`, the selectivity ratio stood at 95.
On the same count and under the same terms, next, `Cc1cc(/C=C/C#N)cc(C)c1Oc1nc(Nc2ccc(N3CCN(S(C)(=O)=O)CC3)c(F)c2)ncc1-c1cnc(N)nc1`: 918; `Cc1cc(/C=C/C#N)cc(C)c1Oc1nc(Nc2ccc(N3CCS(=O)(=O)CC3)c(F)c2)ncc1-c1cnc(N)nc1`: 156; `Cc1cc(/C=C/C#N)cc(C)c1Oc1nc(Nc2ccc(N3CCS(=O)(=O)CC3)c(C#N)c2)ncc1-c1ccc(N)nc1`: 16.
Turning to `Cc1cc(/C=C/C#N)cc(C)c1Oc1nc(Nc2ccc(N3CCS(=O)(=O)CC3)c(F)c2)ncc1-c1cccnc1`, the selectivity ratio was 4850.
On the same count and under the same terms, next, `Cc1cc(/C=C/C#N)cc(C)c1Oc1nc(Nc2ccc(N3CCN(S(C)(=O)=O)CC3)c(F)c2)ncc1-c1ccc(F)nc1`: > 11600.

The next data set deals with Human immunodeficiency virus 1. In words: Antiviral activity against NNRTI-resistant HIV-1 harboring F227L/V106A double mutant infected in human MT4 cells assessed as protection against virus-induced cytopathic effect incubated for 5 days by MTT assay. It counts as functional, organism-based. The settings on record: Human immunodeficiency virus 1, MT4, 120 h.
As for `Cc1cc(C#N)cc(C)c1Oc1nc(Nc2ccc(C#N)cc2)nc(N)c1Br` [ETRAVIRINE], the concentration giving a half-maximal response (EC50) (in general, the concentration needed to bring the measured effect to its halfway point) came out at 8.5 nM.
Same read-out and setting: under `Cc1cc(/C=C/C#N)cc(C)c1Oc1nc(Nc2ccc(N3CCS(=O)(=O)CC3)c(F)c2)ncc1-c1cccnc1` stands 420 nM; under `Cc1cc(/C=C/C#N)cc(C)c1Oc1nc(Nc2ccc(N3CCN(S(C)(=O)=O)CC3)c(F)c2)ncc1-c1ccc(F)nc1`, 350 nM.
Take `Cc1ccnc2c1NC(=O)c1cccnc1N2C1CC1` [NEVIRAPINE]: the EC50 was 10300 nM.

System in another data set: not listed separately
In words: Cytotoxicity against human MT4 cells assessed as reduction in cell viability incubated for 5 days by MTT assay. It counts as toxicity, cell-based. The settings on record: time 5 day.
On to `Cc1cc(C#N)cc(C)c1Oc1nc(Nc2ccc(C#N)cc2)nc(N)c1Br` [ETRAVIRINE], for which the CC50 – broadly, the concentration that lowers cell viability or growth by half – at 120 h is > 4600 nM.
The same measure, in the same setting: under `O=C1Nc2ccc(Cl)cc2[C@@](C#CC2CC2)(C(F)(F)F)O1` [EFAVIRENZ] stands > 6400 nM.
On the same count and under the same terms, next, `Cc1cc(/C=C/C#N)cc(C)c1Oc1nc(Nc2ccc(N3CCS(=O)(=O)CC3)c(F)c2)ncc1-c1ccc(N)nc1`: 800 nM; `Cc1cc(/C=C/C#N)cc(C)c1Oc1nc(Nc2ccc(N3CCN(S(C)(=O)=O)CC3)c(C#N)c2)ncc1-c1cnc(F)nc1`: 30900 nM; `Cc1cc(/C=C/C#N)cc(C)c1Oc1nc(Nc2ccc(N3CCN(S(C)(=O)=O)CC3)c(F)c2)ncc1-c1cnc(F)nc1`: 600 nM.
For `Cc1cc(/C=C/C#N)cc(C)c1Oc1nc(Nc2ccc(N3CCN(S(C)(=O)=O)CC3)c(F)c2)ncc1-c1cnc(N)nc1`, the CC50 at 120 h was determined as 6700 nM.
Take `Cc1cc(/C=C/C#N)cc(C)c1Oc1nc(Nc2ccc(N3CCS(=O)(=O)CC3)c(F)c2)ncc1-c1cnc(N)nc1`: the CC50 at 120 h came out at 1000 nM.
The same measure, in the same setting: under `Cc1cc(/C=C/C#N)cc(C)c1Oc1nc(Nc2ccc(N3CCS(=O)(=O)CC3)c(C#N)c2)ncc1-c1ccc(N)nc1` stands 700 nM; under `Cc1cc(/C=C/C#N)cc(C)c1Oc1nc(Nc2ccc(N3CCS(=O)(=O)CC3)c(F)c2)ncc1-c1cccnc1`, 82800 nM.
Same read-out and setting: under `Cc1cc(/C=C/C#N)cc(C)c1Oc1nc(Nc2ccc(N3CCN(S(C)(=O)=O)CC3)c(F)c2)ncc1-c1ccc(F)nc1` stands > 202000 nM.
On the same count and under the same terms, next, `Cc1ccnc2c1NC(=O)c1cccnc1N2C1CC1` [NEVIRAPINE]: > 15000 nM.

The next data set has as its system Human immunodeficiency virus 1. In words: Antiviral activity against NNRTI-resistant HIV-1 harboring Y188L mutant infected in human MT4 cells assessed as protection against virus-induced cytopathic effect incubated for 5 days by MTT assay. The settings on record: Human immunodeficiency virus 1, MT4, 120 h. It counts as functional, organism-based.
Turning to `Cc1cc(C#N)cc(C)c1Oc1nc(Nc2ccc(C#N)cc2)nc(N)c1Br` [ETRAVIRINE], the EC50 is 23 nM.
On the same count and under the same terms, next, `O=C1Nc2ccc(Cl)cc2[C@@](C#CC2CC2)(C(F)(F)F)O1` [EFAVIRENZ]: 280 nM; `Cc1cc(/C=C/C#N)cc(C)c1Oc1nc(Nc2ccc(N3CCS(=O)(=O)CC3)c(F)c2)ncc1-c1cccnc1`: 1560 nM.
`Cc1cc(/C=C/C#N)cc(C)c1Oc1nc(Nc2ccc(N3CCN(S(C)(=O)=O)CC3)c(F)c2)ncc1-c1ccc(F)nc1`: the EC50 came out at 4540 nM.
Still for that read-out and setting: under `Cc1ccnc2c1NC(=O)c1cccnc1N2C1CC1` [NEVIRAPINE] stands > 1500 nM.

Another data set deals with Human immunodeficiency virus 1. Briefly: Antiviral activity against NNRTI-resistant HIV-1 harboring Y181C mutant infected in human MT4 cells assessed as protection against virus-induced cytopathic effect incubated for 5 days by MTT assay. It counts as functional, organism-based. The settings on record: Human immunodeficiency virus 1, MT4, 120 h.
As to `O=C1Nc2ccc(Cl)cc2[C@@](C#CC2CC2)(C(F)(F)F)O1` [EFAVIRENZ], the EC50 stood at 9.8 nM.
Same read-out and setting: under `Cc1cc(/C=C/C#N)cc(C)c1Oc1nc(Nc2ccc(N3CCS(=O)(=O)CC3)c(F)c2)ncc1-c1cccnc1` stands 380 nM; under `Cc1cc(/C=C/C#N)cc(C)c1Oc1nc(Nc2ccc(N3CCN(S(C)(=O)=O)CC3)c(F)c2)ncc1-c1ccc(F)nc1`, 460 nM.
On the same count and under the same terms, next, `Cc1ccnc2c1NC(=O)c1cccnc1N2C1CC1` [NEVIRAPINE]: 6590 nM.

A further data set relates to Human immunodeficiency virus 1. In words: Antiviral activity against NNRTI-resistant HIV-1 harboring K103N mutant infected in human MT4 cells assessed as protection against virus-induced cytopathic effect incubated for 5 days by MTT assay. The class given is functional, organism-based. The settings on record: Human immunodeficiency virus 1, MT4, 120 h.
`O=C1Nc2ccc(Cl)cc2[C@@](C#CC2CC2)(C(F)(F)F)O1` [EFAVIRENZ]: the EC50 was 78 nM.
Still for that read-out and setting: next, `Cc1cc(/C=C/C#N)cc(C)c1Oc1nc(Nc2ccc(N3CCS(=O)(=O)CC3)c(F)c2)ncc1-c1cccnc1`: 12 nM; `Cc1cc(/C=C/C#N)cc(C)c1Oc1nc(Nc2ccc(N3CCN(S(C)(=O)=O)CC3)c(F)c2)ncc1-c1ccc(F)nc1`: 34 nM.
Consider `Cc1ccnc2c1NC(=O)c1cccnc1N2C1CC1` [NEVIRAPINE], for which the EC50 worked out at 5740 nM.

In a further data set the test system is Human immunodeficiency virus 1. Briefly: Antiviral activity against wild type HIV-1 IIIB infected in human MT4 cells assessed as protection against virus-induced cytopathic effect incubated for 5 days by MTT assay. The settings on record: Human immunodeficiency virus 1, IIIB, MT4, 120 h. The class given is functional, organism-based.
For the compound `Cc1cc(C#N)cc(C)c1Oc1nc(Nc2ccc(C#N)cc2)nc(N)c1Br` [ETRAVIRINE], the EC50 came to 3.8 nM.
For the compound `O=C1Nc2ccc(Cl)cc2[C@@](C#CC2CC2)(C(F)(F)F)O1` [EFAVIRENZ], the half-maximal effective concentration (EC50) amounted to 5.2 nM.
On the same count and under the same terms, under `Cc1cc(/C=C/C#N)cc(C)c1Oc1nc(Nc2ccc(N3CCS(=O)(=O)CC3)c(F)c2)ncc1-c1ccc(N)nc1` stands 3.5 nM; under `Cc1cc(/C=C/C#N)cc(C)c1Oc1nc(Nc2ccc(N3CCN(S(C)(=O)=O)CC3)c(C#N)c2)ncc1-c1cnc(F)nc1`, 39 nM; under `Cc1cc(/C=C/C#N)cc(C)c1Oc1nc(Nc2ccc(N3CCN(S(C)(=O)=O)CC3)c(F)c2)ncc1-c1cnc(F)nc1`, 6.3 nM.
On the same count and under the same terms, next, `Cc1cc(/C=C/C#N)cc(C)c1Oc1nc(Nc2ccc(N3CCN(S(C)(=O)=O)CC3)c(F)c2)ncc1-c1cnc(N)nc1`: 7.3 nM.
On to `Cc1cc(/C=C/C#N)cc(C)c1Oc1nc(Nc2ccc(N3CCS(=O)(=O)CC3)c(F)c2)ncc1-c1cnc(N)nc1`, for which the 50% effective concentration (EC50) was determined as 6 nM.
Turning to `Cc1cc(/C=C/C#N)cc(C)c1Oc1nc(Nc2ccc(N3CCS(=O)(=O)CC3)c(C#N)c2)ncc1-c1ccc(N)nc1`, the EC50 was determined as 41 nM.
Consider `Cc1cc(/C=C/C#N)cc(C)c1Oc1nc(Nc2ccc(N3CCS(=O)(=O)CC3)c(F)c2)ncc1-c1cccnc1`, for which the EC50 came out at 17 nM.
The same measure, in the same setting: next, `Cc1cc(/C=C/C#N)cc(C)c1Oc1nc(Nc2ccc(N3CCN(S(C)(=O)=O)CC3)c(F)c2)ncc1-c1ccc(F)nc1`: 17 nM.

Another data set relates to Human immunodeficiency virus 1. Briefly: Antiviral activity against NNRTI-resistant HIV-1 harboring E138K mutant infected in human MT4 cells assessed as protection against virus-induced cytopathic effect incubated for 5 days by MTT assay. The class given is functional, organism-based. The settings on record: Human immunodeficiency virus 1, MT4, 120 h.
`Cc1cc(C#N)cc(C)c1Oc1nc(Nc2ccc(C#N)cc2)nc(N)c1Br` [ETRAVIRINE]: the EC50 was 9 nM.
On the same count and under the same terms, next, `Cc1cc(/C=C/C#N)cc(C)c1Oc1nc(Nc2ccc(N3CCS(=O)(=O)CC3)c(F)c2)ncc1-c1cccnc1`: 64 nM; `Cc1cc(/C=C/C#N)cc(C)c1Oc1nc(Nc2ccc(N3CCN(S(C)(=O)=O)CC3)c(F)c2)ncc1-c1ccc(F)nc1`: 51 nM.
With `Cc1ccnc2c1NC(=O)c1cccnc1N2C1CC1` [NEVIRAPINE], the EC50 came out at 223 nM.

In a further data set the test system is Human immunodeficiency virus 1. Briefly: Antiviral activity against NNRTI-resistant HIV-1 harboring RES056 mutant infected in human MT4 cells assessed as protection against virus-induced cytopathic effect incubated for 5 days by MTT assay. The class given is functional, organism-based. The settings on record: Human immunodeficiency virus 1, MT4, 120 h.
For the compound `Cc1cc(C#N)cc(C)c1Oc1nc(Nc2ccc(C#N)cc2)nc(N)c1Br` [ETRAVIRINE], the EC50 was found to be 52 nM.
As to `O=C1Nc2ccc(Cl)cc2[C@@](C#CC2CC2)(C(F)(F)F)O1` [EFAVIRENZ], the 50% effective concentration (EC50) was determined as 373 nM.
The same measure, in the same setting: next, `Cc1cc(/C=C/C#N)cc(C)c1Oc1nc(Nc2ccc(N3CCS(=O)(=O)CC3)c(F)c2)ncc1-c1cccnc1`: 4520 nM; `Cc1cc(/C=C/C#N)cc(C)c1Oc1nc(Nc2ccc(N3CCN(S(C)(=O)=O)CC3)c(F)c2)ncc1-c1ccc(F)nc1`: 8280 nM.
As to `Cc1ccnc2c1NC(=O)c1cccnc1N2C1CC1` [NEVIRAPINE], the EC50 is > 15000 nM.

The subject of the next data set is Human immunodeficiency virus 1. In words: Antiviral activity against NNRTI-resistant HIV-1 harboring L100I mutant infected in human MT4 cells assessed as protection against virus-induced cytopathic effect incubated for 5 days by MTT assay. The settings on record: Human immunodeficiency virus 1, MT4, 120 h. It counts as functional, organism-based.
On to `Cc1cc(C#N)cc(C)c1Oc1nc(Nc2ccc(C#N)cc2)nc(N)c1Br` [ETRAVIRINE], for which the EC50 was 6.5 nM.
With `Cc1cc(/C=C/C#N)cc(C)c1Oc1nc(Nc2ccc(N3CCS(=O)(=O)CC3)c(F)c2)ncc1-c1cccnc1`, the EC50 was determined as 130 nM.
Still for that read-out and setting: next, `Cc1cc(/C=C/C#N)cc(C)c1Oc1nc(Nc2ccc(N3CCN(S(C)(=O)=O)CC3)c(F)c2)ncc1-c1ccc(F)nc1`: 140 nM; `Cc1ccnc2c1NC(=O)c1cccnc1N2C1CC1` [NEVIRAPINE]: 1760 nM.
